Assay results as given in patent US9605008B2, “Benzyl-1H-pyrazolo[3,4-b]pyridines and use thereof” (BAYER PHARMA AKTIENGESELLSCHAFT, priority 2013, dated 2017).

Tests used:
[1] = biological target: recombinant guanylate cyclase reporter cell line (Rattus norvegicus (Rat), UniProt P19686+P20595); assay: Effect on a recombinant guanylate cyclase reporter cell line; assay type: cell-based; conditions: in some cases means of individual determinations
Experimental: B-2. Effect on a Recombinant Guanylate Cyclase Reporter Cell Line
The cellular activity of the compounds according to the invention is determined using a recombinant guanylate cyclase reporter cell line, as described in F. Wunder et al., Anal. Biochem. 339, 104-112 (2005).
Representative values (MEC=minimum effective concentration) for the compounds according to the invention are shown in the table below (Table 1; in some cases as means of individual determinations): […]

[2] = biological target: human phosphodiesterase 5 (PDE 5) (Homo sapiens (Human), UniProt O76074); assay: Inhibition of human phosphodiesterase 5 (PDE 5); assay type: biochemical; conditions: PDE 5 preparation from human platelets; [8-3H] cGMP substrate, SPA; in some cases means of individual determinations
Experimental: B-3. Inhibition of Human Phosphodiesterase 5 (PDE 5)
PDE 5 preparations are obtained from human platelets by disruption (Microfluidizer®, 800 bar, 3 passes), followed by centrifugation (75000 g, 60 min, 4° C.) and ion exchange chromatography of the supernatant on a Mono Q 10/10 column (linear sodium chloride gradient, elution with a 0.2-0.3M solution of sodium chloride in buffer (20 mM Hepes pH 7.2, 2 mM magnesium chloride). Fractions having PDE 5 activity are combined (PDE 5 preparation) and stored at −80° C.
To determine their in vitro action on human PDE 5, the test substances are dissolved in 100% DMSO and serially diluted. Typically, dilution series (1:3) from 200 μM to 0.091 μM are prepared (resulting final concentrations in the test: 4 μM to 0.0018 μM). In each case 2 μl of the diluted substance solutions are placed into the wells of microtitre plates (Isoplate-96/200W; Perkin Elmer). Subsequently, 50 μl of a dilution of the above-described PDE 5 preparation are added. The dilution of the PDE 5 preparation is chosen such that during the later incubation less than 70% of the substrate are converted (typical dilution: 1:100; dilution buffer: 50 mM tris/hydrochloric acid pH 7.5, 8.3 mM magnesium chloride, 1.7 mM EDTA, 0.2% BSA). The substrate, [8-^3H] cyclic guanosine-3′,5′-monophosphate (1 μCi/μl; Perkin Elmer) is diluted 1:2000 with assay buffer (50 mM tris/hydrochloric acid pH 7.5, 8.3 mM magnesium chloride, 1.7 mM EDTA) to a concentration of 0.0005 μCi/μl. By addition of 50 μl (0.025 μCi) of the diluted substrate, the enzyme reaction is finally started. The test mixtures are incubated at room temperature for 60 min and the reaction is stopped by adding 25 μl of a suspension of 18 mg/ml yttrium scintillation proximity beads in water (phosphodiesterase beads for SPA assays, RPNQ 0150, Perkin Elmer). The microtitre plates are sealed with a film and left to stand at room temperature for 60 min. Subsequently, the plates are analysed for 30 s per well in a Microbeta scintillation counter (Perkin Elmer). IC50 values are determined using the graphic plot of the substance concentration against percentage PDE 5 inhibition.

Chain of recombinant guanylate cyclase reporter cell line (P19686 whole entry): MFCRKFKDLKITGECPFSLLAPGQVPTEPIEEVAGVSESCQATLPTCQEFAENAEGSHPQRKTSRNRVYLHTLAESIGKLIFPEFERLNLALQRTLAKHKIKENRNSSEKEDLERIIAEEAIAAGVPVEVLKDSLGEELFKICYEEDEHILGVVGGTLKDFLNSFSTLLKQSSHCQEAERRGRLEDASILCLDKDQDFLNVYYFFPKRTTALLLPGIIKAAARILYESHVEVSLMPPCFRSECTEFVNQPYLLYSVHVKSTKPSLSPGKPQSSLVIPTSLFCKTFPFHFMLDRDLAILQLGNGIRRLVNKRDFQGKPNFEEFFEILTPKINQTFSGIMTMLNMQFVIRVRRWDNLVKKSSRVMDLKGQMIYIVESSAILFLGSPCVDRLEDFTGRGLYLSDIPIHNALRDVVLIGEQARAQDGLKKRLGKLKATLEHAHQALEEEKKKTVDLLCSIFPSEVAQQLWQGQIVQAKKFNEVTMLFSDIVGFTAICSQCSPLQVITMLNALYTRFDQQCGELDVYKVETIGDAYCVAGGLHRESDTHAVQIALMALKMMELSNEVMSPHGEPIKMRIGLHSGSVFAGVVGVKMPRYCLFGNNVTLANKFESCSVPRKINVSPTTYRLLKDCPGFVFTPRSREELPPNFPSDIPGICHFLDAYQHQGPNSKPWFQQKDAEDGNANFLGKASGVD
Chain of recombinant guanylate cyclase reporter cell line (P20595 whole entry): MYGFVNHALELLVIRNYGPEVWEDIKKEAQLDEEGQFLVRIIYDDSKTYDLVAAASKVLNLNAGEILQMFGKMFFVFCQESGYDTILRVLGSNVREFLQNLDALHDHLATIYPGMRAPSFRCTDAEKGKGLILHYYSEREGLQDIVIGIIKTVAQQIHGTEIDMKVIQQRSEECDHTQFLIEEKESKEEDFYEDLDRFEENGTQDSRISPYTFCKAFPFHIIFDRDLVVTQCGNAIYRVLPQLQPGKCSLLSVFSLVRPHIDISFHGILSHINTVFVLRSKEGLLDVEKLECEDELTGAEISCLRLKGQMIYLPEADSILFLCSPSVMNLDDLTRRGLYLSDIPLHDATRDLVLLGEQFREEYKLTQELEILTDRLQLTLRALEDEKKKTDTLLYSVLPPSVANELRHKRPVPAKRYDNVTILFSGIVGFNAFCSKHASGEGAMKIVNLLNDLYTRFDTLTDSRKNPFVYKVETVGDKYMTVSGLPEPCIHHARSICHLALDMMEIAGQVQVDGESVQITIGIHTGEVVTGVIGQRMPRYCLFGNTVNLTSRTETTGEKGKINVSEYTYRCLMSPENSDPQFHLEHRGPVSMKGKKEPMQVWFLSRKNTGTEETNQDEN

Row | SMILES | MEC (minimum effective concentration) [1] | IC50 [2]
1 | Cc1ccc2c(-c3nnc4c(n3)NC(=O)C4(C)C)nn(Cc3ccc(Cl)cc3F)c2n1 [Example 10, 3-[1-(4-Chloro-2-fluorobenzyl)-6-methyl-1H-pyrazolo[3,4-b]pyridin-3-yl]-7,7-dimethyl-5,7-dihydro-6H-pyrrolo[2,3-e][1,2,4]triazin-6-one] | 300 nM | 4.5 nM
2 | Cc1nc2c(cc1F)c(-c1nnc3c(n1)NC(=O)C3(C)C)nn2Cc1c(F)cccc1F [Example 15, 3-[1-(2,6-Difluorobenzyl)-5-fluoro-6-methyl-1H-pyrazolo[3,4-b]pyridin-3-yl]-7,7-dimethyl-5,7-dihydro-6H-pyrrolo[2,3-e][1,2,4]triazin-6-one] | 65 nM | 67 nM
3 | Cc1ccc2c(-c3nnc4c(n3)NC(=O)C4(C)C)nn(Cc3ccc(C)c(F)c3F)c2n1 [Example 20, 3-[1-(2,3-Difluoro-4-methylbenzyl)-6-methyl-1H-pyrazolo[3,4-b]pyridin-3-yl]-7,7-dimethyl-5,7-dihydro-6H-pyrrolo[2,3-e][1,2,4]triazin-6-one] | 300 nM | 0.65 nM
4 | Cc1ccc2c(-c3nnc4c(n3)NC(=O)C43CC3)nn(Cc3cccc(F)c3F)c2n1 [Example 24, 3′-[1-(2,3-Difluorobenzyl)-6-methyl-1H-pyrazolo[3,4-b]pyridin-3-yl]spiro[cyclopropane-1,7′-pyrrolo[2,3-e][1,2,4]triazin]-6′(5′H)-one] | 300 nM | 21 nM
5 | Cc1ccc(Cn2nc(-c3nnc4c(n3)NC(=O)C4(C)C)c3cc(F)c(C)nc32)cc1F [Example 17, 3-[5-Fluoro-1-(3-fluoro-4-methylbenzyl)-6-methyl-1H-pyrazolo[3,4-b]pyridin-3-yl]-7,7-dimethyl-5,7-dihydro-6H-pyrrolo[2,3-e][1,2,4]triazin-6-one] | 300 nM | 8 nM
6 | Cc1nc2c(cc1F)c(-c1nnc3c(n1)NC(=O)C3(C)C)nn2Cc1ccc(F)cc1F [Example 7, 3-[1-(2,4-Difluorobenzyl)-5-fluoro-6-methyl-1H-pyrazolo[3,4-b]pyridin-3-yl]-7,7-dimethyl-5,7-dihydro-6H-pyrrolo[2,3-e][1,2,4]triazin-6-one] | 100 nM | 21 nM
7 | Cc1ccc2c(-c3nnc4c(n3)NC(=O)C4(C)C)nn(Cc3cccc(Cl)c3F)c2n1 [Example 14, 3-[1-(3-Chloro-2-fluorobenzyl)-6-methyl-1H-pyrazolo[3,4-b]pyridin-3-yl]-7,7-dimethyl-5,7-dihydro-6H-pyrrolo[2,3-e][1,2,4]triazin-6-one] | 300 nM | 63 nM
8 | Cc1ccc(Cn2nc(-c3nnc4c(n3)NC(=O)C4(C)C)c3cc(F)c(C)nc32)c(F)c1F [Example 19, 3-[1-(2,3-Difluoro-4-methylbenzyl)-5-fluoro-6-methyl-1H-pyrazolo[3,4-b]pyridin-3-yl]-7,7-dimethyl-5,7-dihydro-6H-pyrrolo[2,3-e][1,2,4]triazin-6-one] | 300 nM | 0.25 nM
9 | Cc1nc2c(cc1F)c(-c1nnc3c(n1)NC(=O)C3(C)C)nn2Cc1ccc(Cl)cc1F [Example 9, 3-[1-(4-Chloro-2-fluorobenzyl)-5-fluoro-6-methyl-1H-pyrazolo[3,4-b]pyridin-3-yl]-7,7-dimethyl-5,7-dihydro-6H-pyrrolo[2,3-e][1,2,4]triazin-6-one] | 300 nM | 6 nM
10 | Cc1nc2c(cc1F)c(-c1nnc3c(n1)NC(=O)C3(C)C)nn2Cc1c(F)ccc(F)c1F [Example 11, 3-[5-Fluoro-6-methyl-1-(2,3,6-trifluorobenzyl)-1H-pyrazolo[3,4-b]pyridin-3-yl]-7,7-dimethyl-5,7-dihydro-6H-pyrrolo[2,3-e][1,2,4]triazin-6-one] | 30 nM | 27 nM
11 | Cc1ccc(Cn2nc(-c3nnc4c(n3)NC(=O)C4(C)C)c3ccc(C)nc32)c(F)c1 [Example 6, 3-[1-(2-Fluoro-4-methylbenzyl)-6-methyl-1H-pyrazolo[3,4-b]pyridin-3-yl]-7,7-dimethyl-5,7-dihydro-6H-pyrrolo[2,3-e][1,2,4]triazin-6-one] | 200 nM | 2 nM
12 | Cc1ccc(Cn2nc(-c3nnc4c(n3)NC(=O)C4(C)C)c3cc(F)c(C)nc32)c(F)c1 [Example 5, 3-[5-Fluoro-1-(2-fluoro-4-methylbenzyl)-6-methyl-1H-pyrazolo[3,4-b]pyridin-3-yl]-7,7-dimethyl-5,7-dihydro-6H-pyrrolo[2,3-e][1,2,4]triazin-6-one] | 100 nM | 1.5 nM
13 | Cc1ccc2c(-c3nnc4c(n3)NC(=O)C4(C)C)nn(Cc3c(F)ccc(F)c3F)c2n1 [Example 12, 7,7-Dimethyl-3-[6-methyl-1-(2,3,6-trifluorobenzyl)-1H-pyrazolo[3,4-b]pyridin-3-yl]-5,7-dihydro-6H-pyrrolo[2,3-e][1,2,4]triazin-6-one] | 300 nM | 21 nM
14 | Cc1nc2c(cc1F)c(-c1nnc3c(n1)[N-]C(=O)C3(C)C)nn2Cc1cccc(F)c1F.[Na+] [Example 2, Sodium 3-[1-(2,3-difluorobenzyl)-5-fluoro-6-methyl-1H-pyrazolo[3,4-b]pyridin-3-yl]-7,7-dimethyl-6-oxo-6,7-dihydropyrrolo[2,3-e][1,2,4]triazin-5-ide] | 30 nM | 5 nM
15 | Cc1ccc(Cn2nc(-c3nnc4c(n3)NC(=O)C43CC3)c3ccc(C)nc32)c(F)c1 [Example 22, 3′-[1-(2-Fluoro-4-methylbenzyl)-6-methyl-1H-pyrazolo[3,4-b]pyridin-3-yl]spiro[cyclopropane-1,7′-pyrrolo[2,3-e][1,2,4]triazin]-6′(5′H)-one] | – | 16 nM
16 | Cc1ccc2c(-c3nnc4c(n3)NC(=O)C4(C)C)nn(Cc3ccc(F)cc3F)c2n1 [Example 8, 3-[1-(2,4-Difluorobenzyl)-6-methyl-1H-pyrazolo[3,4-b]pyridin-3-yl]-7,7-dimethyl-5,7-dihydro-6H-pyrrolo[2,3-e][1,2,4]triazin-6-one] | 300 nM | 34 nM
17 | Cc1nc2c(cc1F)c(-c1nnc3c(n1)NC(=O)C3(C)C)nn2Cc1cccc(Cl)c1F [Example 13, 3-[1-(3-Chloro-2-fluorobenzyl)-5-fluoro-6-methyl-1H-pyrazolo[3,4-b]pyridin-3-yl]-7,7-dimethyl-5,7-dihydro-6H-pyrrolo[2,3-e][1,2,4]triazin-6-one] | 100 nM | 42 nM
18 | Cc1ccc2c(-c3nnc4c(n3)NC(=O)C4(C)C)nn(Cc3c(F)cccc3F)c2n1 [Example 16, 3-[1-(2,6-Difluorobenzyl)-6-methyl-1H-pyrazolo[3,4-b]pyridin-3-yl]-7,7-dimethyl-5,7-dihydro-6H-pyrrolo[2,3-e][1,2,4]triazin-6-one] | 300 nM | 24 nM
19 | Cc1ccc2c(-c3nnc4c(n3)NC(=O)C43CC3)nn(Cc3ccc(C)c(F)c3F)c2n1 [Example 26, 3′-[1-(2,3-Difluoro-4-methylbenzyl)-6-methyl-1H-pyrazolo[3,4-b]pyridin-3-yl]spiro[cyclopropane-1,7′-pyrrolo[2,3-e][1,2,4]triazin]-6′(5′H)-one] | 300 nM | 4 nM
20 | Cc1nc2c(cc1F)c(-c1nnc3c(n1)NC(=O)C3(C)C)nn2Cc1cccc(F)c1F [Example 1, 3-[1-(2,3-Difluorobenzyl)-5-fluoro-6-methyl-1H-pyrazolo[3,4-b]pyridin-3-yl]-7,7-dimethyl-5,7-dihydro-6H-pyrrolo[2,3-e][1,2,4]triazin-6-one] | 30 nM | 5 nM
21 | Cc1ccc2c(-c3nnc4c(n3)NC(=O)C4(C)C)nn(Cc3ccc(C)c(F)c3)c2n1 [Example 18, 3-[1-(3-Fluoro-4-methylbenzyl)-6-methyl-1H-pyrazolo[3,4-b]pyridin-3-yl]-7,7-dimethyl-5,7-dihydro-6H-pyrrolo[2,3-e][1,2,4]triazin-6-one] | 1000 nM | 10 nM
